“Also recorded” adds a separate entry of the source.
How the values were obtained:
[1] = tested on: zebrafish embryos; assay: Effect on organs other than the liver in zebrafish embryos (in situ hybridization); type: in vivo; settings: 10 μM, 18 hpf until 72 hpf
Protocol: These findings were corroborated by qPCR for lfabp.
In order to examine the effect that NO signaling had on other endodermal organs including the pancreas and gut, embryos were exposed to Deta (10 μM) or L-NAME (10 μM) from 18 hpf until 72 hpf. Endodermal derived tissue, the exocrine pancreas and gut were stained by in situ hybridization for foxa3, trypsin and ifabp, respectively.

[2] = tested on: zebrafish embryos; assay: Hepatic progenitor proliferation in zebrafish embryos (BrdU incorporation, pH3 staining); type: in vivo; settings: for BrdU incorporation (BrdU positive cells): developing hepatic bud; for staining for the mitotic marker pH3: treated embryos
[3] = tested on: lfabp:GFP embryos; assay: Flow cytometric analysis of GFP+ hepatocytes in lfabp:GFP embryos; settings: GFP+ cells, compared to control
Source text: S-nitrosoglutathione reductase (GSNOR) is the major enzyme responsible for metabolizing S-nitrosothiols and is therefore a key negative regulator of S-nitrosylation pathways. We reasoned that by inhibiting GSNOR function we could stimulate S-nitrosothiol signaling and modulate liver formation.

[4] = tested on: lfabp:GFP embryos; assay: APAP-induced liver injury in zebrafish larvae, sub-lethal dose (liver size, BrdU); type: in vivo; settings: for liver size: APAP 5 mM 48-60 hpf, treatment in recovery phase 60-96 hpf, L-NAME 10 μM, NAC 10 μM, GSNORi 1 μM; for liver size / hepatoprotection: co-exposure model: APAP 5 mM concurrently with treatment 48-96 hpf, Deta 5 μM; for liver size and survival after APAP exposure: summary, embryos and adults, co-exposure
Protocol: In order to examine the possible hepatoprotective effect of GSNORi in the context of acetaminophen (APAP) induced liver injury. Transgenic lfabp:GFP embryos were exposed to a sub-lethal dose of APAP (5 mM) from 48 to 60 hpf followed by treatment during the recovery phase (60-96 hpf) with L-NAME, GSNORi and/or NAC. […] In order to further investigate the proliferative effect of treatments following APAP induced liver injury, we examined BrdU incorporation during the recovery phase.

[5] = tested on: NO production; assay: NO production in vivo with fluorescent probe Cu(2)(FL2E); set-up: species or system zebrafish; settings: cell-trappable fluorescent probe Cu(2)(FL2E)
[6] = tested on: Zebrafish; assay: Liver regeneration after 1/3 partial hepatectomy in zebrafish; type: in vivo; settings: 10 μM
Source text: In order to determine whether the hepatoprotective and pro-regenerative effect of GSNOR inhibition was limited to APAP-induced liver injury, we determined the impact of exposure to GSNORi after ⅓ partial hepatectomy.

[7] = tested on: cloche embryos; assay: Liver size in cloche mutant embryos lacking vasculature; type: in vivo, zebrafish; settings: for liver size in cloche embryos: summary statement
Source text: NO signaling can occur via 2 distinct mechanisms namely, cGMP-dependent vasodilation and S-nitrosylation pathways. In order to clarify the importance of the well-known vascular effects of NO, we examined the effect of chemical modulators of NO signaling in cloche mutants that have no endothelial cells and therefore lack any vasculature.

[8] = tested on: zebrafish embryos; assay: Liver size in zebrafish embryos (lfabp in situ hybridization, lfabp:GFP); type: in vivo; settings: for liver size (in situ hybridization for lfabp and transferrin): 10 μM, exposure 24-72 hpf; for liver size: other NO donors at optimal doses, alternative NOS inhibitor, inactive enantiomer, dose series
Protocol: In order to identify regulators of liver formation a chemical genetic screen was conducted. Several of the chemicals identified by the screen were known to impact on NO signaling. Based on these initial observations, well-established modulators of NO signaling were secondarily screened for effects on liver formation. […] The contrasting effects of L-Arg and L-NAME on liver formation were confirmed by in vivo fluorescent microscopy of lfabp:GFP transgenic zebrafish. To quantify the phenotypic changes caused by NO signaling, the liver size (region of lfabp expression) of treated embryos were scored as large, medium or small. […]
To further characterize the role of NO signaling on liver formation, we studied the temporal requirements for NO signaling. Embryos were exposed to Deta (10 μM), L-Arg (10 μM) or L-NAME (10 μM) from 24-48 or 48-72 hpf at which point liver size was assessed. […] Exposure of embryos to L-Arg (10 μM) caused a subtle yet significant increase in the hepatic bud size at 36 hpf (region of hhex expression) in 26% of embryos, whereas L-NAME diminished hepatic bud size in 33% of embryos. […]

[9] = tested on: zebrafish embryos; assay: Chemical genetic screen for effects on liver development in zebrafish embryos; type: in vivo; settings: lfabp:GFP fluorescence and lfabp in situ hybridization at 72 hpf
Protocol: The liver arises from anterior endodermal progenitor cells. Liver development can be divided into three stages, specification (18-24 hours post fertilization, hpf), budding/differentiation (24-72 hpf), and hepatic outgrowth (72-96 hpf). The various stages of liver development can be observed in the embryo by in situ hybridization for hhex (endodermal progenitors), foxA3 (differentiated endoderm) and liver fatty acid binding protein (lfabp, marker of hepatocytes).
In an effort to identify novel regulators of liver formation and homeostasis, a library of 2880 biologically active compounds (obtained from the ICCB at Harvard Medical School) was previously screened for global effects on liver development in zebrafish. Hepatogenesis was assessed in vivo using fluorescent reporter fish where the hepatocyte-specific lfabp promoter drives GFP expression. All embryos were imaged with fluorescence microscopy at 72 hpf, then fixed and subjected to in situ hybridization for lfabp to confirm the in vivo findings. Of the chemical treatments, 191 compounds (6.6%) increased, and 344 (11%) decreased liver formation.

[10] = tested on: zebrafish embryos; assay: Hepatic bud size in zebrafish embryos (hhex, foxA3, sid4 expression); type: in vivo
Protocol: To further characterize the role of NO signaling on liver formation, we studied the temporal requirements for NO signaling. Embryos were exposed to Deta (10 μM), L-Arg (10 μM) or L-NAME (10 μM) from 24-48 or 48-72 hpf at which point liver size was assessed. […] Exposure of embryos to L-Arg (10 μM) caused a subtle yet significant increase in the hepatic bud size at 36 hpf (region of hhex expression) in 26% of embryos, whereas L-NAME diminished hepatic bud size in 33% of embryos.
The expression pattern of an alternate hepatic progenitor marker prox1 corroborated that chemical modulators of NO signaling alter the size of the developing hepatic bud. […] These findings were verified by qPCR for hhex and foxA3.

[11] = tested on: adult zebrafish; assay: APAP-induced liver injury in adult zebrafish; type: in vivo; settings: for overall survival compared to APAP alone: adults, Deta 5 μM, GSNO 5 μM; for overall survival compared to APAP alone / hepatic glutathione (GSH) / liver histology: APAP 10 mM; for hepatic glutathione (GSH) / liver histology: GSNORi 1 μM and/or NAC 10 μM
Protocol: Having shown that GSNORi was hepatoprotective in APAP exposed larvae, we wanted to examine whether GSNORi remained effective in adult zebrafish. To visualise the hepatoprotective properties of GSNORi in vivo, adult casper lfabp:GFP transgenic fish were exposed to APAP (10 mM) in the presence or absence of GSNORi (1 μM) for 24 hr and examined 72 hpe by fluorescence microscopy. […] To gain a greater understanding of the hepatoprotective potential of GSNORi, survival studies were conducted in which adults were exposed to APAP (10 mM) in the presence or absence of GSNORi (1 μM) for 24 hr, followed by a 2-day recovery period in fresh water. […] The differences in survival were reflected in circulating ALT levels, which are used clinically to assess liver toxicity; peaking at 24 hpe with 196 U/L in APAP (10 mM) exposed fish and 55 U/L for fish exposed to APAP with GSNORi (1 μM).
Given that treatments for APAP-induced liver injury are provided after a considerable delay in the clinical setting, we wanted to determine whether GSNORi would remain hepatoprotective when treatment was delayed. In addition, we wanted to ascertain whether GSNORi could synergize with the clinical antidote NAC and extend the therapeutic window.

[12] = tested on: zebrafish embryos; assay: Survival of zebrafish embryos exposed to a lethal dose of APAP; type: in vivo; settings: for survival compared to APAP alone: co-exposure 5 μM; for survival: GSNORi 1 μM, NAC 10 μM
Protocol: Having found a hepatoprotective effect of GSNORi in embryos exposed to a sublethal dose of APAP, we next examined whether GSNORi was able to enhance survival in embryos exposed to a lethal dose of APAP (10 mM).

[13] = tested on: WT mice; assay: APAP-induced liver injury in WT mice treated with GSNORi and/or NAC; type: in vivo; settings: APAP 300 mg/kg, treatment 2 hrs later, GSNORi 5 mg/kg, NAC 300 mg/kg
Protocol: To investigate this possibility, WT mice were injected with a sub-lethal dose of APAP (300 mg/kg) followed 2 hrs later by treatment with GSNORi (5 mg/kg) and/or NAC (300 mg/kg). Mice were sacrificed at 6 or 24 hr.

[14] = APAP 10 mM 48-96 hpf, co-exposure
[15] = APAP 10 mM for 18 hr followed by delayed treatment, GSNORi 1 μM, NAC 10 μM

Molecule: COC(=O)[C@@H](N)CCCNC(=N)N[N+](=O)[O-] [L-NAME, L-N^G-Nitroarginine methyl ester]
- size of other endodermal organs (foxa3, trypsin, ifabp) [1]: did not observably affect the size of other endodermal organs
- BrdU incorporation (BrdU positive cells) [2]: reduced the number of BrdU positive cells
- staining for the mitotic marker pH3 [2]: inhibited cell cycle progression
- hepatocytes per embryo [3]: decrease
- liver size [4]: exacerbated
- liver size / hepatoprotection [4]: exacerbated injury
- liver size and survival after APAP exposure [4]: further decrease in liver size and more extensive loss in survival
- NO in the developing endoderm [5]: inhibited
- regenerative activity [6]: complete cessation of regenerative activity
- embryos with a small liver ([7]; cloche mutants, L-NAME 10 μM): 40%
- liver size in cloche embryos [7]: able to modulate liver size
- liver size (in situ hybridization for lfabp and transferrin) [8]: decrease in liver size
- embryos with diminished liver size ([8]; L-NAME 10 μM, 24-72 hpf): 62%
- liver size [9]: smaller livers; also recorded: small liver
- embryos with diminished hepatic bud size (hhex) ([10]; L-NAME, 36 hpf): 33%
- embryos with restricted hepatic bud size (foxA3 expression) ([10]; L-NAME, 48 hpf): 60%
- overall survival compared to APAP alone [11]: exacerbated the loss in survival

Molecule: N=C(N)NCCC[C@@H](N)C(=O)O [D-Arg, D-Arginine]
- liver size [8]: no effect on liver size

Molecule: NG-amino-L-Arginine [L-NMMA]
- liver size [8]: decrease liver size in a dose-dependent manner

Molecule: N=C(N)NCCC[C@H](N)C(=O)O [L-Arg, L-Arginine]
- BrdU incorporation (BrdU positive cells) [2]: increase in BrdU positive cells
- staining for the mitotic marker pH3 [2]: increased hepatic proliferation
- hepatocytes per embryo [3]: increase in hepatocytes per embryo
- embryos with increased liver size ([7]; cloche mutants, L-Arg 10 μM): 37%
- liver size (in situ hybridization for lfabp and transferrin) [8]: dramatic increase in liver size
- embryos with a large liver ([8]; L-Arg 10 μM, 24-72 hpf, liver size scored large, medium or small): approximately 51%
- liver size [9]: increase in liver size
- embryos with increase in hepatic bud size (region of hhex expression) ([10]; L-Arg 10 μM, 36 hpf): 26%
- embryos with increased hepatic bud size (foxA3 expression) ([10]; L-Arg, 48 hpf): 51%

Molecule: NCCN(CCN)/[N+]([O-])=N/O [Deta, Diethylenetriamine-NONOate]
- size of other endodermal organs (foxa3, trypsin, ifabp) [1]: did not observably affect the size of other endodermal organs
- survival compared to APAP alone ([12]; APAP 10 mM): increased survival
- liver size / hepatoprotection [4]: protected the liver
- liver size [8]: increase liver size
- liver size [9]: increase in liver size
- region of hhex and foxA3 expression in the developing hepatic bud ([10]; 10 μM): increasing the region of hhex and foxA3 expression
- overall survival compared to APAP alone [11]: enhanced overall survival

Molecule: N[C@@H](CCC(=O)N[C@@H](CSN=O)C(=O)NCC(=O)O)C(=O)O [GSNO, S-nitrosoglutathione]
- survival compared to APAP alone ([12]; APAP 10 mM): increased survival
- embryos with increased liver size ([7]; cloche mutants, GSNO 5 μM): 46%
- liver size in cloche embryos [7]: able to modulate liver size
- embryos with enhanced liver size ([8]; GSNO 5 μM): 40%
- overall survival compared to APAP alone [11]: enhanced overall survival

Molecule: CC(=O)NC(C(=O)O)C(C)(C)SN=O (racemic) [SNAP, S-Nitroso-N-Acetyl-D,L-Penicillamine]
- liver size [8]: increase liver size

Molecule: CC(=O)N[C@@H](CS)C(=O)O [NAC, N-acetylcysteine]
- survival [12, 14]: 32%
- survival ([12]; APAP 10 mM, treatment given after a 12 hr delay): 15%
- circulating ALT, % of the level of APAP alone [13]: 43%
- histological evaluation of centrilobular necrosis ([13]; 6 and 24 hr): effective in preventing liver necrosis
- survival by 72 hpe [11, 15]: 80%
- hepatic glutathione (GSH) [11]: modulated
- liver histology [11]: alleviated
- cell proliferation (PCNA immunohistochemistry) ([11]; following APAP injury): modulated liver regeneration

Molecule: CC(=O)Nc1ccc(O)cc1 [APAP, N-acetyl-p-aminophenol]
- survival [12, 14]: 4%
- liver size [4]: dramatic decrease in liver size
- liver size and survival after APAP exposure [4]: decrease in liver size and death
- circulating ALT ([11]; 24 hpe, APAP 10 mM ± GSNORi 1 μM): 196 U/L
- survival by 72 hpe [11, 15]: 57%
- survival by 72 hpe ([11]; APAP 10 mM ± GSNORi 1 μM for 24 hr, 2-day recovery in fresh water): 39%
- hepatic glutathione (GSH) [11]: dramatic reduction in hepatic glutathione (GSH)
- liver histology [11]: hepatocyte necrosis and hemorrhaging
- GFP fluorescence (fluorescence microscopy) ([11]; adult casper lfabp:GFP fish, APAP 10 mM ± GSNORi 1 μM for 24 hr, examined 72 hpe): reduction in GFP fluorescence
